According to PMC2765816 (European journal of pharmacology, 2008):

Experiments:
[1] = target: T1, adenosine A2B receptor (Homo sapiens, UniProt P29275); details: ref Hide et al., 1992; cited from earlier work
T1 sequence (P29275 1-332): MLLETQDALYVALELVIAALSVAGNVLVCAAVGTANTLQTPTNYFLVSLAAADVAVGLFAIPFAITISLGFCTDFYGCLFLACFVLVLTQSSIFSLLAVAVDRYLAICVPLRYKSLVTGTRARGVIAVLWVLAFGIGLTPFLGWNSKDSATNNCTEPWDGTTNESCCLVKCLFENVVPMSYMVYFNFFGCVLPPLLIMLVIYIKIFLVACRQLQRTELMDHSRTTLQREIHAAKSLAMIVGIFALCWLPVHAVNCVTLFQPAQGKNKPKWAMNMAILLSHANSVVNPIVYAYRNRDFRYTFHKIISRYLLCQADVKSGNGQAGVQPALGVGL

[2] = target: adenosine A2A-CFP receptor (Homo sapiens, UniProt P29274); details: 0.45 M; agonist 2 μM NECA
adenosine A2A-CFP receptor, sequence (P29274 1-363): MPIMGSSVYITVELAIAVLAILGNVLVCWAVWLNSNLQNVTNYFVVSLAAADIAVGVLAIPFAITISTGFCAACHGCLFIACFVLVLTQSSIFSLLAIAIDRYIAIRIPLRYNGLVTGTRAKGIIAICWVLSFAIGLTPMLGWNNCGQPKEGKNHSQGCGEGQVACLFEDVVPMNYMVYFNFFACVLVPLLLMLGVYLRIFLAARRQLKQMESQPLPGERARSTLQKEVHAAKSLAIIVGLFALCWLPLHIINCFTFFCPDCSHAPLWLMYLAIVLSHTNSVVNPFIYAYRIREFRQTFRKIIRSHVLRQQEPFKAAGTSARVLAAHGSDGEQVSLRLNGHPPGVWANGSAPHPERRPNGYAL

| SMILES | activity at the adenosine A2B receptor [1] | effect on agonist-induced internalization of A2A-CFP [2] |
| --- | --- | --- |
| CCNC(=O)[C@H]1O[C@@H](n2cnc3c(N)nc(NCCc4ccc(CCC(=O)NCCN)cc4)nc32)[C@H](O)[C@@H]1O [APEC, 2-[4-(2-aminoethylaminocarbonylethyl)phenylethylamino]-5′-N-ethylcarboxamidoadenosine] | inactive | – |
| OC[C@H]1O[C@@](CO)(O[C@H]2O[C@H](CO)[C@@H](O)[C@H](O)[C@H]2O)[C@@H](O)[C@@H]1O [hyperosmolar sucrose, sucrose] | – | prevented agonist-induced internalization |
